Key:
[1] = target: Recombinant human c-Met protein (Homo sapiens (Human), UniProt P08581); assay: c-Met receptor tyrosine kinase activity assay (NADH read-out); format: biochemical; settings: ATP 30 μM, c-Met 30 nM
Procedure: c-Met Receptor Tyrosine Kinase Activity Assay (NADH Read-Out):
Recombinant human c-Met protein (Invitrogen, Carlsbad, Calif., USA) is used. As substrate for the kinase reaction the peptide KKKSPGEYVNIEFG (JPT, Germany) is used. For the assay, 1 μL of a 51-fold concentrated solution of the test compound in DMSO is pipetted into a white 384-well microtiter plate (Greiner Bio-One, Frickenhausen, Germany). 25 μL of a solution of c-Met (final concentration 30 nM) and pyruvate kinase/lactate dehydrogenase (Roche Diagnostics, Mannheim, Germany; final concentration 8 mg/L) in assay buffer [3-(N-morpholino)propanesulfonic acid (MOPS), 50 mM, pH 7; MgCl2, 10 mM; bovine serum albumin (BSA), 0.01%; Triton X 100, 0.01%; DTT, 2 mM] are added, and the mixture is incubated for 5 min at room temperature. Then, the kinase reaction is started by the addition of 25 μL of a solution of adenosine triphosphate (ATP, final concentration 30 μM), substrate (final concentration 100 μM), nicotinamide adenine dinucleo-tide (NADH, final concentration 50 μM) and dithiothreitol (DTT, final concentration 2 mM) in assay buffer, and the resulting mixture is incubated for a reaction time of 100 min at 32° C.
Subsequently, the amount of phosphorylated substrate is evaluated by measurement of the decrease of NADH fluorescence. Therefore, the fluorescence emissions at 465 nm after excitation at 340 nm is measured in a fluorescence reader, e.g. Tecan Ultra (Tecan, Männedorf, Switzerland). The data are normalised (enzyme reaction without inhibitor=0% inhibition; all other assay components but no enzyme=100% inhibition).

[2] = Caco-2 permeability assay; format: in vitro ADME; settings: human, apical to basolateral, 2 h at 37° C., Table 3, read-out: Caco-2 permeability PappA-B
Description: Caco-2 Permeability Assay:
The in vitro permeation of a test compound across a Caco-2 cell monolayer is a well-established assay system to predict the permeability from the gastro-intestinal tract [cf. P. Artursson and J. Karlsson: Correlation between oral drug absorption in humans and apparent drug permeability coefficients in human intestinal epithelial (Caco-2) cells, Biochem. Biophys. 175 (3), 880-885 (1991)]. The permeability of the compounds of the present invention in such Caco-2 cells was determined as described below:
Human caco-2 cells (ACC No. 169, DSMZ, German Collection of Microorganisms and Cell Cultures, Braunschweig, Germany) are seeded on 24-well insert plates and are allowed to grow for 14-16 days. For permeability studies, the test compounds are dissolved in DMSO and diluted to the final test concentration of 2 μM with transport buffer [Hanks' Buffered Salt Solution, Gibco/Invitrogen, further supplemented with glucose (final concentration 19.9 mM) and HEPES (final concentration 9.8 mM)]. For determination of the apical to basolateral permeability (PappA-B), the test compound solution is added to the apical side of the cell monolayer and transport buffer to the basolateral side of the monolayer; for determination of the basolateral to apical permeability (PappB-A), the test compound solution is added to the basolateral side of the cell monolayer and transport buffer to the apical side of the monolayer. Samples are taken from the donor compartment at the beginning of the experiment to confirm mass balance. After an incubation of 2 h at 37° C., samples are taken from both compartments. Samples are analyzed by LC-MS/MS, and the apparent permeability coefficients are calculated. Lucifer Yellow permeability is assayed for each cell monolayer to ensure cell monolayer integrity, and the permeability of Atenolol (low permeability marker) and Sulfasalazine (marker for active excretion) is determined for each batch as quality control.

[3] = Pharmacokinetics after intravenous administration of test compounds; format: in vivo, rat; settings: for in vivo PK, rat i.v. CLblood: male Wistar rats, total blood clearance; for in vivo PK, rat i.v. Fmax, calc: Fmax,calc=[1−CLblood/Qh]*100, Qh 4.2 L per h per kg
Procedure: Pharmacokinetics after Intravenous Administration of Test Compounds: Male Wistar rats (Harlan Laboratories) are anesthetized and a catheter is inserted into the jugular vein of the rat. The next day, a defined dose of the test compound is administered as solution by injection into the tail vein. Blood samples are collected through the jugular catheter during the next 24 h (8-11 time points). Blood is centrifuged in heparin-tubes, and each plasma sample is treated with acetonitrile for protein precipitation. After centrifugation, the test compound in the supernatant is quantified using an LC-MS/MS method. The determined plasma concentrations are used for the calculation of pharmacokinetic parameters, such as AUC (area under the plasma concentration vs. time curve), Vss (volume of distribution under steady-state conditions), Cmax (highest test compound concentration observed in plasma following administration), t1/2 (half-life) and CL (total clearance of the test compound from the plasma). For the calculation of the blood clearance, the blood to plasma partitioning is determined by incubation of the test compound in blood of rats. After separation of the plasma by centrifugation, the concentration in the plasma is determined by an LC-MS/MS method. Under the assumption that the test compound is completely absorbed, the theoretically maximum achievable bioavailability Fmax,calc is calculated by the equation Fmax,calc=[1−CLblood/Qh]*100, wherein CLblood is the total blood clearance and Qh is the hepatic blood flow in rat of 4.2 L per h per kg.

[4] = Pharmacokinetics after peroral administration of test compounds; format: in vivo, rat; settings: for in vivo PK, rat p.o. F / in vivo PK, rat p.o. AUCnorm: male Wistar rats; for in vivo PK, rat p.o. F: bioavailability; for in vivo PK, rat p.o. AUCnorm: dose and body weight-normalized AUC; for Fraction absorbed fabs, calc: rat p.o., fabs,calc=[F/Fmax,calc]*100
Procedure: Pharmacokinetics after Peroral Administration of Test Compounds: Male Wistar rats (Harlan Laboratories) are anesthetized and a catheter is inserted into the jugular vein of the rat. The next day, a defined dose of the test compound is administered perorally. Blood samples are collected through the jugular catheter during the next 24 h (8-11 time points). Blood is centrifuged in heparin-tubes, and each plasma sample is treated with acetonitrile for protein precipitation. After centrifugation, the test compound in the supernatant is quantified using an LC-MS/MS method. The determined plasma concentrations are used for the determination of pharmacokinetic parameters, such as AUC (area under the plasma concentration vs. time curve), Cmax (highest test compound concentration observed in plasma following administration), t1/2 (half-life) and F (bioavailability). The fraction of the dose absorbed (fabs,calc) is calculated by the equation fabs,calc=[F/Fmax,calc]*100, wherein F is the determined bioavailability after peroral administration and Fmax,calc is the theoretically maximum achievable bioavailability considering the determined blood clearance and assuming that the test compound is completely absorbed.

Chain of Recombinant human c-Met protein (P08581 25-1390): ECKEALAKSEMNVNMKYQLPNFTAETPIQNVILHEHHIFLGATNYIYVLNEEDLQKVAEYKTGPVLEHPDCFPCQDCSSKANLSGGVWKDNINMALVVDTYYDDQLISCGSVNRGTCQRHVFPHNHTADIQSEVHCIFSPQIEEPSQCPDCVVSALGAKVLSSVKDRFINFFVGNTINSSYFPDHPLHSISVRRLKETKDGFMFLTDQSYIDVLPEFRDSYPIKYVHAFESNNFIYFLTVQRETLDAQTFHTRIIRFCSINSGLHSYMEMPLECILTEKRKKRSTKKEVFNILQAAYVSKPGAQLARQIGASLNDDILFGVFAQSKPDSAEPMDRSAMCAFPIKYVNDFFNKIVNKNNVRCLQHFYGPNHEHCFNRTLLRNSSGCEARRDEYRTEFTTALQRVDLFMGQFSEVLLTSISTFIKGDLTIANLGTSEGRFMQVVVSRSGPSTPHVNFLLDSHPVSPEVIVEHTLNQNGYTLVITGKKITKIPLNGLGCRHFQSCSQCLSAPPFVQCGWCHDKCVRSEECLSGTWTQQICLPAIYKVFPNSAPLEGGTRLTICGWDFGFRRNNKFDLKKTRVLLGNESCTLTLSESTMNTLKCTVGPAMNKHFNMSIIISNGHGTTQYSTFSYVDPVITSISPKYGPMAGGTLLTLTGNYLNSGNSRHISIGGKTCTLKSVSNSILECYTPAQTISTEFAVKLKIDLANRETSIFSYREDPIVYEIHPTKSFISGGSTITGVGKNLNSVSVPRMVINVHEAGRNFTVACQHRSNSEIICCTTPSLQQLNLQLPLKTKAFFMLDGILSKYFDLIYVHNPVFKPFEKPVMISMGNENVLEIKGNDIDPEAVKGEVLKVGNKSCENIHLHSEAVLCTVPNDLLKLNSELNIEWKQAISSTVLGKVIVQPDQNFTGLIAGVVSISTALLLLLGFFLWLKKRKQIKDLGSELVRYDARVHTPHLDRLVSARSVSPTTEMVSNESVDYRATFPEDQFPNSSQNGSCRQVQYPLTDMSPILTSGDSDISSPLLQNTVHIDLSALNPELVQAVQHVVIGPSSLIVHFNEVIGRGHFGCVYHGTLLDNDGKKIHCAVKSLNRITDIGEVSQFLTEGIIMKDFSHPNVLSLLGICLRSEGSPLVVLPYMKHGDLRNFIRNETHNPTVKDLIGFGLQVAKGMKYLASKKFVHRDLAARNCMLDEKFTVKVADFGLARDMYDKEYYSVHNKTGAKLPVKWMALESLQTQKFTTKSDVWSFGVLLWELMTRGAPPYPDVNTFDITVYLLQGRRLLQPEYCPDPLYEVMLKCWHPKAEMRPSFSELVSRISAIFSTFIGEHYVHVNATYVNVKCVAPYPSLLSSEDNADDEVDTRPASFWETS

SMILES	IC50 [1]	Papp at 2 h, 2 μM [2]	in vivo PK, rat i.v. CLblood [3]	in vivo PK, rat i.v. Fmax, calc [3]	in vivo PK, rat p.o. F [4]	in vivo PK, rat p.o. AUCnorm [4]	Fraction absorbed fabs, calc [4]
CC1=C(C#N)C(c2ccc3[nH]nc(C)c3c2)C(C#N)=C(C(F)F)N1 (single isomer, unassigned) [Example 3, 2-(Difluoromethyl)-6-methyl-4-(3-methyl-1H-indazol-5-yl)-1,4-dihydropyridine-3,5-dicarbonitrile]	0.006 µM	164 nm/s	3.14 L/h/kg	25%	33%	0.16 kg·h/L	131%
Cc1n[nH]c2cc(F)c(C3C(C#N)=C(C(F)F)NC(C(F)F)=C3C#N)cc12 [Example 14, 2,6-Bis(difluoromethyl)-4-(6-fluoro-3-methyl-1H-indazol-5-yl)-1,4-dihydropyridine-3,5-dicarbonitrile]	0.026 µM	271 nm/s	0.28 L/h/kg	93%	62%	4.73 kg·h/L	67%
CC1=C(C#N)C(c2ccc3[nH]nc(C)c3c2)C(C#N)=C(C(F)(F)F)N1 (single isomer, unassigned) [Example 6]	0.012 µM	311 nm/s	1.68 L/h/kg	60%	62%	0.70 kg·h/L	104%

Source: patent US9422263B2, “Fluoro-substituted 3,5-dicyano-4-(1H-indazol-5-yl)-2,6-dimethyl-1,4-dihydropyridine derivatives and methods of use thereof” (BAYER PHARMA AKTIENGESELLSCHAFT, priority 2009, dated 2016)
